Experimental data: US6162806A, “Active oxygen scavengers containing pterin derivatives” (Artemis, Inc., priority 1996, dated 2000)

Tests used:
[1] = system: active oxygens generated by PMA-stimulated polymorphonuclear leukocytes (PMN); experiment: Active oxygen scavenging activity, PMN-PMA system (CLA chemiluminescence); type: cell-based, human (healthy adult); details: 37° C., approximately 10 minutes
Procedure: Venous blood (10 ml) was taken from a healthy adult, and polymorphonuclear leukocytes (abbreviated to PMN) were isolated therefrom. The leukocytes were suspended in HBSS (Hanks' balanced salt solution) to approximately 1×10^6 cells/ml. 2-Methyl-6-phenyl-3,7-dihydroimidazo-(1,2-a)-pyrazin-3-on (hereinafter referred to as CLA) as a chemiluminescent compound, that is, a compound which may generate chemiluminescence due to the presence of active oxygens, was dissolved in a phosphate buffered saline (hereinafter referred to as PBS) to the concentration of 50 μM. Phorbol myristate acetate (abbreviated to PMA) as a polymorphonuclear leukocyte stimulating agent, that is, a compound which may generate active oxygens by stimulating polymorphonuclear leukocytes, was dissolved in PBS to the concentration of 20 μg/ml. The PMN suspension, the CLA solution, and the PMA solution were cooled with ice for storage until use for measurement.
6-Formyl-pterin as the active ingredient of the active oxygen scavenger according to the present invention was dissolved in PBS to the concentrations of 100 μM, 250 μM, or 500 μM, and then warmed to 37° C. before measurement. PBS as a control was also warmed to 37° C. before measurement.
To polymorphonuclear leukocytes isolated from 2 ml of the PMN suspension by centrifugation, the 6-formyl-pterin solutions of various concentrations or PBS were added to adjust total volume to 1930 μl. The mixtures were poured into test tubes and warmed at 37° C. for 15 minutes. After adding the CLA solution (50 μl), the mixture was placed in a chemiluminescence reader and the measurement of an amount of chemiluminescence was started. After 1 minute from the beginning of the measurement, the PMA solution (20 μl) was injected into the test tube with a syringe. The measurement was performed at 37° C. for approximately 10 minutes while monitoring every 10 seconds.
FIG. 1 is a graph showing a total chemiluminescence amount obtained by accumulating chemiluminescence amounts measured every 10 seconds.

[2] = Active oxygen scavenging activity, active oxygen derived from potassium superoxide in DMSO (electron spin resonance spectroscopy); details: ESR at 77K, vs no addition
Procedure: Potassium superoxide (KO2) (28 mg) was added to dimethyl sulfoxide (DMSO) (20 ml) to prepare a saturated solution so that active oxygens were generated in DMSO. As a standard substance, 2,2,6,6-tetramethylpiperidine-N-oxide (TEMPO) was used. TEMPO was dissolved in DMSO in the concentrations of 0.1, 0.3, 0.5, 0.7, 1, 1.2, or 1.5 mM. The electron spin resonance signals obtained (measured at 77K) were integrated to prepare a standard curve.

[3] = system: delayed neuronal death (DND) in the cerebral hippocampus area; experiment: Suppression of delayed neuronal death in transient cerebral ischemia model gerbils (MAP2 staining of hippocampus); type: in vivo, gerbil; details: 50 mM in physiological saline (1 ml) intraperitoneally 30 minutes after resumption of bloodstream, after 1 week
Procedure: A neck of each gerbil (body weigh=approximately 80 g) under a general anesthesia was incised. Ambilateral carotids were visually ligated with clips to cut off a bloodstream. After 5 minutes, the bloodstream was resumed, and the incision was sutured. After 30 minutes from the resumption of the bloodstream, physiological saline (1 ml) was intraperitoneally administered to a control group of the gerbils, whereas 50 mM of 6-formyl-pterin in physiological saline (1 ml) was intraperitoneally administered to an administering group of the gerbils. Thereafter, gerbils came out from anesthesia and then were bred for 1 week. Then, a brain was extirpated from each gerbil under a general anesthesia. Tissue slices were prepared from the brain and stained with microtubule-associated protein 2 (MAP2) which can specifically stain neurons, to evaluate the degree of delayed neuronal death (DND) in the cerebral hippocampus area.
FIG. 3 is a photomicrograph of a slice of a cerebral hippocampus tissue from a completely normal gerbil which had not encountered hemostasis, FIG. 4 is a photomicrograph of a slice of a cerebral hippocampus tissue from the control group, and FIG. 5 is a photomicrograph of a slice of a cerebral hippocampus tissue from the 6-formyl-pterin-administering group. […]

[4] = system: rats; experiment: Acute toxicity, intravenous; type: in vivo, rat; details: 6 mg/kg intravenously; 10 rats; observed for 3 months
Source text: Acute toxicity of 6-formyl-pterin was examined, using rats.

[5] = literature; cited from earlier work
[6] = background art; cited from earlier work

Compound | amount of chemiluminescence, i.e., the amount of active oxygens ([1]; 100 μM, vs PBS control (FIG. 1, curve b)) | amount of chemiluminescence, i.e., the amount of active oxygens ([1]; 250 μM, vs PBS control (FIG. 1, curve c)) | amount of chemiluminescence, i.e., the amount of active oxygens ([1]; 500 μM, vs PBS control (FIG. 1, curve d)) | amount of active oxygens generated from KO2 ([2]; 1 mM 6-formyl-pterin) | amount of active oxygens generated from KO2 ([2]; from 0.1 mM 6-formyl-pterin) | delayed neuronal death [3] | state of neurons in cerebral hippocampus tissue slice (FIG. 5) ([3]; control: neurons completely dropped) | death (acute toxicity) [4] | antioxidative activity against active oxygens [5] | teratogenicity [6]
Nc1nc2ncc(C=O)nc2c(=O)[nH]1 [6-formyl-pterin] | significantly suppressed | almost disappeared | almost disappeared | almost disappeared | lowered | suppressed | many neurons were living | No death was observed |  | 
Nc1nc2ncc([C@H](O)[C@H](O)CO)nc2c(=O)[nH]1 [NP, 2-amino-4-oxo-6-(D-erythro-1',2',3'-trihydroxypropyl)-pteridine] |  |  |  |  |  |  |  |  | antioxidative activity against active oxygens | 
Nc1nc2c(c(=O)[nH]1)NC([C@H](O)[C@H](O)CO)CN2 (some centres unmarked) [NPH4, 5,6,7,8-tetrahydroneopterin] |  |  |  |  |  |  |  |  | potent antioxidative activity | exhibits teratogenicity
